Read-outs that look alike come from different tables or passages of the source.
Test system: patients with advanced TP53 wild-type (WT) leukemias
Description: Patients with Ph+ ALL who show early markers of relapse in MRD surveillance can be considered for inclusion as long as other therapies such as TKIs are exhausted or cannot be given. • Tumor of the patient is TP53 wt characterized by, at a minimum, no mutations in exons 5, 6, 7 and 8, and the p53 status was obtained from a bone-marrow sample, collected no longer than 3 months before signing the main ICF. Safety and Tolerability Profile of Regimen 1B in Hematological Tumors

## COc1ncc(-c2nc3c(n2C(C)C)[C@H](c2ccc(Cl)cc2)N(c2cc(Cl)cn(C)c2=O)C3=O)c(OC)n1 [HDM201, (S)-5-(5-Chloro-1-methyl-2-oxo-1,2-dihydro-pyridin-3-yl)-6-(4-chloro-phenyl)-2-(2,4-dimethoxy-pyrimidin-5-yl)-1-isopropyl-5,6-dihydro-1H-pyrrolo[3,4-d]imidazol-4-one]
Regimen 1B N = 6, All Grades
  AE: Stomatitis: 0 n (%)
  AE: Subarachnoid Haemorrhage: 0 n (%)
  AE: Thrombocytopenia/Platelet Count Decreased: 3 (50.0) n (%)
  AE: Total: 5 (83.3) n (%)
  AE: Tumour Lysis Syndrome: 0 n (%)
  AE: Vomiting: 0 n (%)
  AE: Weight Decreased: 0 n (%)
  AE: White Blood Cell Count Decreased: 0 n (%)
Regimen 1B N = 6, Grade 3/4
  AE: Abdominal Discomfort: 0 n (%)
  AE: Abdominal Pain: 0 n (%)
  AE: Abdominal Pain Upper: 0 n (%)
  AE: Acute Kidney Injury: 1 (16.7) n (%)
  AE: Amylase Increased: 0 n (%)
  AE: Anaemia: 2 (33.3) n (%)
  AE: Arthralgia: 0 n (%)
  AE: Asthenia: 0 n (%)
  AE: Atrial Fibrillation: 0 n (%)
  AE: Atypical Pneumonia: 0 n (%)
  AE: Balanitis Candida: 0 n (%)
  AE: Blood Alkaline Phosphatase Increased: 0 n (%)
  AE: Blood Bilirubin Increased: 0 n (%)
  AE: Blood Creatinine Increased: 0 n (%)
  AE: Blood Phosphorus Increased: 0 n (%)
  AE: Blood Uric Acid Increased: 0 n (%)
  AE: Bone Marrow Failure: 0 n (%)
  AE: C-Reactive Protein Increased: 0 n (%)
  AE: Cardiac Failure: 0 n (%)
  AE: Cellulitis: 1 (16.7) n (%)
  AE: Chronic Graft Versus Host Disease: 0 n (%)
  AE: Conjunctival Haemorrhage: 0 n (%)
  AE: Constipation: 0 n (%)
  AE: Cough: 0 n (%)
  AE: Cystitis Viral: 0 n (%)
  AE: Cytomegalovirus Infection: 0 n (%)
  AE: Decreased Appetite: 0 n (%)
  AE: Diarrhoea: 0 n (%)
  AE: Dyspepsia: 0 n (%)
  AE: Dyspnoea: 0 n (%)
  AE: Epistaxis: 0 n (%)
  AE: Fatigue: 0 n (%)
  AE: Febrile Neutropenia: 2 (33.3) n (%)
  AE: Gamma-Glutamyltransferase Increased: 0 n (%)
  AE: General Physical Health Deterioration: 0 n (%)
  AE: Gingival Bleeding: 0 n (%)
  AE: Graft Versus Host Disease: 0 n (%)
  AE: Haemoglobin Decreased: 0 n (%)
  AE: Headache: 0 n (%)
  AE: Hyperbilirubinaemia: 0 n (%)
  AE: Hyperglycaemia: 0 n (%)
  AE: Hyperkalaemia: 1 (16.7) n (%)
  AE: Hyperphosphataemia: 0 n (%)
  AE: Hyperuricaemia: 0 n (%)
  AE: Hypoalbuminaemia: 0 n (%)
  AE: Hypocalcaemia: 0 n (%)
  AE: Hypokalaemia: 0 n (%)
  AE: Hypomagnesaemia: 0 n (%)
  AE: Hyponatraemia: 0 n (%)
  AE: Hypophosphataemia: 0 n (%)
  AE: Hypotension: 0 n (%)
  AE: Infection: 0 n (%)
  AE: Infective Glossitis: 0 n (%)
  AE: Iron Overload: 0 n (%)
  AE: Leukopenia: 0 n (%)
  AE: Lip Oedema: 0 n (%)
  AE: Lipase Increased: 0 n (%)
  AE: Macular Oedema: 1 (16.7) n (%)
  AE: Malaise: 0 n (%)
  AE: Mouth Haemorrhage: 0 n (%)
  AE: Nausea: 0 n (%)
  AE: Neutropenia/Neutrophil Count Decreased: 1 (16.7) n (%)
  AE: Oedema: 0 n (%)
  AE: Oedema Peripheral: 0 n (%)
  AE: Oral Disorder: 0 n (%)
  AE: Pain In Extremity: 0 n (%)
  AE: Pancytopenia: 1 (16.7) n (%)
  AE: Pneumonia: 0 n (%)
  AE: Pollakiuria: 0 n (%)
  AE: Pyrexia: 0 n (%)
  AE: Rash: 0 n (%)
  AE: Rash Erythematous: 0 n (%)
  AE: Rash Papular: 0 n (%)
  AE: Rectal Haemorrhage: 0 n (%)
  AE: Renal Failure: 0 n (%)
  AE: Skin Exfoliation: 0 n (%)
  AE: Stomatitis: 0 n (%)
  AE: Subarachnoid Haemorrhage: 0 n (%)
  AE: Thrombocytopenia/Platelet Count Decreased: 3 (50.0) n (%)
  AE: Total: 5 (83.3) n (%)
  AE: Tumour Lysis Syndrome: 0 n (%)
  AE: Vomiting: 0 n (%)
  AE: Weight Decreased: 0 n (%)
  AE: White Blood Cell Count Decreased: 0 n (%)
Regimen 2A N = 7, All Grades
  AE: Abdominal Discomfort: 0 n (%)
  AE: Abdominal Pain: 0 n (%)
  AE: Abdominal Pain Upper: 0 n (%)
  AE: Acute Kidney Injury: 1 (14.3) n (%)
  AE: Amylase Increased: 0 n (%)
  AE: Anaemia: 3 (42.9) n (%)
  AE: Arthralgia: 0 n (%)
  AE: Asthenia: 0 n (%)
  AE: Atrial Fibrillation: 0 n (%)
  AE: Atypical Pneumonia: 0 n (%)
  AE: Balanitis Candida: 0 n (%)
  AE: Blood Alkaline Phosphatase Increased: 0 n (%)
  AE: Blood Bilirubin Increased: 0 n (%)

From US10966978B2, “Dose and regimen for HDM2-p53 interaction inhibitors” (Novartis AG, priority 2016, dated 2021)
